Test results reported in the supplement of paper PMC11208160.

Test: recombinant UMI read abundance after kanamycin selection (control-corrected) (log10(CPM+1)); higher = more efficient recombination; extreme values may be limits of the assay; sequences stand for … in AGTGCAGAGAAAATCGGCCAGTTTTCTCTGCCTGCAGTCCGCATGCCGTGGGACCCCTTGGGTTCTAACCTGTTGCCTAGATTTATGCAGCGGACTGCCTTTCTCCCAAAGTGATAAACCGG…AGGTTGGTTTCACT; site = the 11-nt donor
Outline: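 For the IS621 bridge recombinase, a pooled Escherichia coli screen tested donor and donor-binding-loop pairs. Cells received the pair library together with a target plasmid encoding a fixed target and T7-inducible recombinase, then went onto IPTG (0.07 mM) plus kanamycin or unselected plates in duplicate. After PCR across the donor–target junction and sequencing, recombinant UMI counts were normalized to CPM, averaged, and scaled by control-derived factors. Each value is given as log10(CPM+1).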

In order of rising “recombinant UMI read abundance (log10)” value:
1. CCAAATACATGGACCGGTTTTCCCGGTAATCCGTATTTGGC (site CCTAATACTGC)  0
2. CCAAATCCATGGACCGGTTTTCCCGGTAATCCGTATTTGTT (site CCAAATCCTAA)  0
3. CCAAATCCATGGACCGGTTTTCCCGGTAATCCGTATTTGTT (site CGGAATCCTAA)  0
4. CCAACTTCATGGACCGGTTTTCCCGGTAATCCGTATTTGGA (site CCAACTTCTTC)  0
5. CCAAGTGCATGGACCGGTTTTCCCGGTAATCCGTATTTGAT (site CCATGTGCTAT)  0
6. CCAATATCATGGACCGGTTTTCCCGGTAATCCGTATTTGTC (site CCGATATCTGA)  0
7. CCACATTCATGGACCGGTTTTCCCGGTAATCCGTATTTGAT (site CCACATTCTAT)  0
8. CCACGAACATGGACCGGTTTTCCCGGTAATCCGTATTTGCA (site CCACGAACTTG)  0
9. CCAGCAGCATGGACCGGTTTTCCCGGTAATCCGTATTTGCT (site CAAGCAGCTAG)  0
10. CCAGCAGCATGGACCGGTTTTCCCGGTAATCCGTATTTGCT (site CGAGCAGCTAG)  0
11. CCAGCATCATGGACCGGTTTTCCCGGTAATCCGTATTTGAC (site CCAGCATCTGT)  0
12. CCAGCATCATGGACCGGTTTTCCCGGTAATCCGTATTTGAC (site CTAGTATCTGT)  0
13. CCAGGTACATGGACCGGTTTTCCCGGTAATCCGTATTTGAT (site CCAGGTCCTAT)  0
14. CCAGTATCATGGACCGGTTTTCCCGGTAATCCGTATTTGAC (site CGAGTATCTGT)  0
15. CCATCATCATGGACCGGTTTTCCCGGTAATCCGTATTTGCA (site CCATCATCTTG)  0
16. CCATCATCATGGACCGGTTTTCCCGGTAATCCGTATTTGCA (site CGATCATCTAG)  0
17. CCCAAATCATGGACCGGTTTTCCCGGTAATCCGTATTTGTC (site CCCACATCTGA)  0
18. CCCAAATCATGGACCGGTTTTCCCGGTAATCCGTATTTGTC (site CCCAGATCTGA)  0
19. CCCAAATCATGGACCGGTTTTCCCGGTAATCCGTATTTGTC (site CCCATATCTGA)  0
20. CCCAAGCCATGGACCGGTTTTCCCGGTAATCCGTATTTGCC (site CCCAAGCCTGG)  0
21. CCCAAGCCATGGACCGGTTTTCCCGGTAATCCGTATTTGCC (site CCCCAGCCTGG)  0
22. CCCAAGCCATGGACCGGTTTTCCCGGTAATCCGTATTTGCC (site CCCGAGCCTGG)  0
23. CCCATATCATGGACCGGTTTTCCCGGTAATCCGTATTTGGC (site CCCATATCTGA)  0
24. CCCATATCATGGACCGGTTTTCCCGGTAATCCGTATTTGGC (site CCCATATCTGC)  0
25. CCCATATCATGGACCGGTTTTCCCGGTAATCCGTATTTGGC (site CCCATATCTGG)  0
26. CCCATCTCATGGACCGGTTTTCCCGGTAATCCGTATTTGTC (site CCCATATCTGA)  0
27. CCAAGTGCATGGACCGGTTTTCCCGGTAATCCGTATTTGAT (site CCACGTGCTAT)  0.00443
28. CCAGGTGCATGGACCGGTTTTCCCGGTAATCCGTATTTGCT (site CCAGGTGCTAC)  0.00458
29. CCATATTCATGGACCGGTTTTCCCGGTAATCCGTATTTGAC (site GGGATCGCTAC)  0.00628
30. CCACCACCATGGACCGGTTTTCCCGGTAATCCGTATTTGTA (site CCACCACCTTA)  0.00663
31. CCAGGTGCATGGACCGGTTTTCCCGGTAATCCGTATTTGTT (site CCAGGTGCTAC)  0.00844
32. CCACACACATGGACCGGTTTTCCCGGTAATCCGTATTTGTA (site CCCCACACTTA)  0.0104
33. CCACACACATGGACCGGTTTTCCCGGTAATCCGTATTTGTA (site CCGCACACTTA)  0.0104
34. CCCATATCATGGACCGGTTTTCCCGGTAATCCGTATTTGGC (site CCCATATCTGT)  0.0107
35. CCACACACATGGACCGGTTTTCCCGGTAATCCGTATTTGTA (site CCTCACACTTA)  0.0109
36. CCATCCCCATGGACCGGTTTTCCCGGTAATCCGTATTTGAT (site CCATCCCCTAT)  0.0114
37. CCCATACCATGGACCGGTTTTCCCGGTAATCCGTATTTGTG (site CCCATACCTCA)  0.0125
38. CCAATATCATGGACCGGTTTTCCCGGTAATCCGTATTTGTC (site CCCATATCTGA)  0.0129
39. CCAGCAGCATGGACCGGTTTTCCCGGTAATCCGTATTTGCT (site CTAGCAGCTAG)  0.0142
40. CCAAGTGCATGGACCGGTTTTCCCGGTAATCCGTATTTGAT (site CCAGGTGCTAT)  0.02
41. CCAGCAGCATGGACCGGTTTTCCCGGTAATCCGTATTTGCT (site CCAGCAGCTAG)  0.104
42. CCATCAGCATGGACCGGTTTTCCCGGTAATCCGTATTTGCT (site CGATCATCTAG)  0.145
43. CCAGGTGCATGGACCGGTTTTCCCGGTAATCCGTATTTGCT (site CCAGGTGCTAA)  0.208
44. CCAAGCACATGGACCGGTTTTCCCGGTAATCCGTATTTGCT (site CCAAGCACTAG)  0.32
45. CCATCAGCATGGACCGGTTTTCCCGGTAATCCGTATTTGCT (site CCATCAGCTAG)  0.375
46. CCCAAGCCATGGACCGGTTTTCCCGGTAATCCGTATTTGCC (site CCCTAGCCTGG)  0.398
47. CCAGGTGCATGGACCGGTTTTCCCGGTAATCCGTATTTGCT (site CCAGGTGCTAT)  0.402
48. CCAGGTACATGGACCGGTTTTCCCGGTAATCCGTATTTGAT (site CCAGGTTCTAT)  0.478
49. CCCAGCACATGGACCGGTTTTCCCGGTAATCCGTATTTGAA (site CCCAGCACTTT)  0.515
50. CCAGGTACATGGACCGGTTTTCCCGGTAATCCGTATTTGAT (site CCAGGTACTAT)  0.643
51. CCAGTATCATGGACCGGTTTTCCCGGTAATCCGTATTTGAC (site CCAGTATCTGT)  0.685
52. CCACGCGCATGGACCGGTTTTCCCGGTAATCCGTATTTGAG (site CCACGCGCTCT)  0.759
53. CCATTATCATGGACCGGTTTTCCCGGTAATCCGTATTTGAC (site CCATTATCTGT)  0.804
54. CCAGGAGCATGGACCGGTTTTCCCGGTAATCCGTATTTGAT (site CCAGGCGCTAT)  0.854
55. CCAGGTGCATGGACCGGTTTTCCCGGTAATCCGTATTTGTT (site CCAGGTGCTAA)  0.856
56. CCAAGGACATGGACCGGTTTTCCCGGTAATCCGTATTTGTT (site CCAAGGACTAA)  0.865
57. CCATACACATGGACCGGTTTTCCCGGTAATCCGTATTTGTT (site CCATACACTAA)  0.866
58. CCAGTATCATGGACCGGTTTTCCCGGTAATCCGTATTTGAC (site CTAGTATCTGT)  0.871
59. CCAGGAGCATGGACCGGTTTTCCCGGTAATCCGTATTTGAT (site CCAGGGGCTAT)  0.941
60. CCAGTATCATGGACCGGTTTTCCCGGTAATCCGTATTTGAC (site CAAGTATCTGT)  0.983
61. CCAGGTGCATGGACCGGTTTTCCCGGTAATCCGTATTTGTT (site CCAGGTGCTAT)  1.14
62. CCACACACATGGACCGGTTTTCCCGGTAATCCGTATTTGTA (site CCACACACTTA)  1.15
63. CCAATATCATGGACCGGTTTTCCCGGTAATCCGTATTTGTC (site CCAATATCTGA)  1.16
64. CCAGGTACATGGACCGGTTTTCCCGGTAATCCGTATTTGAT (site CCAGGTGCTAT)  1.2
65. CCAATATCATGGACCGGTTTTCCCGGTAATCCGTATTTGTC (site CCTATATCTGA)  1.27
66. CCAGGTGCATGGACCGGTTTTCCCGGTAATCCGTATTTGTT (site CCAGGTGCTAG)  1.42
67. CCAGGTGCATGGACCGGTTTTCCCGGTAATCCGTATTTGCT (site CCAGGTGCTAG)  1.46
68. CCAAGTGCATGGACCGGTTTTCCCGGTAATCCGTATTTGAT (site CCAAGTGCTAT)  1.57
69. CCAGGAGCATGGACCGGTTTTCCCGGTAATCCGTATTTGAT (site CCAGGAGCTAT)  1.6
70. CCCATCTCATGGACCGGTTTTCCCGGTAATCCGTATTTGCT (site CCCATCTCTAG)  1.63
71. CCAGGAGCATGGACCGGTTTTCCCGGTAATCCGTATTTGAT (site CCAGGTGCTAT)  1.78
72. CCCAAATCATGGACCGGTTTTCCCGGTAATCCGTATTTGTC (site CCCAAATCTGA)  1.93
73. CCAAGGTCATGGACCGGTTTTCCCGGTAATCCGTATTTGTT (site CCAAGGTCTAA)  2.12
74. CCAGAATCATGGACCGGTTTTCCCGGTAATCCGTATTTGTG (site CCAGAATCTCA)  2.13
75. CCCAGCTCATGGACCGGTTTTCCCGGTAATCCGTATTTGCA (site CCCAGCTCTTG)  2.3
